Source: patent US8859620B2, “Phthalanilate compounds and methods of use” (University of Notre Dame du Lac, priority 2009, dated 2014)
Converted amounts (≈) assume the structure as drawn. Where two headings read alike, the source gives them in different places.

How the values were obtained:
[1] = tested on: Enterococcus faecalis ATCC 29212; assay: MIC, Table 12; assay type: cell-based
Procedure: (§1) Table 12 illustrates the results and the minimal inhibitory concentration (MIC) for S. aureus, Enterococcus faecalis, Pseudomonas aeruginosa, Klebsiella pneumonia, and Proteus mirabilis. The inoculum is about 1.5×10^5 CFU/mL. The minimal inhibitory concentrations (MIC) were done in Muller-Hinton II Broth with the exception of Enterococcus faecalis ATCC 29212, which was done in Brain Heart Infusion Broth. The concentration of DMSO at 200 μg/mL was 10%.

[2] = tested on: Staphylococcus aureus (COLVA); assay: MIC, Table 12; assay type: cell-based
Procedure: as §1

[3] = tested on: Staphylococcus aureus ATCC 29213; assay: MIC, Table 12; assay type: cell-based
Procedure: as §1

[4] = tested on: Staphylococcus aureus NRS1 (Mec^r. Vani); assay: MIC, Table 12; assay type: cell-based
Procedure: as §1

[5] = tested on: Staphylococcus aureus NRS100 (COL); assay: MIC, Table 12; assay type: cell-based
Procedure: as §1

[6] = target: TEM-1 (class A β-lactamase) (Escherichia coli, UniProt P62593); assay: β-Lactamase assay (nitrocefin colour change), TEM-1; assay type: biochemical; details: for TEM-1: Table 10, class symbols x/xx/xxx, key not given
Chain of TEM-1 (class A β-lactamase) (P62593 24-286 limits assumed): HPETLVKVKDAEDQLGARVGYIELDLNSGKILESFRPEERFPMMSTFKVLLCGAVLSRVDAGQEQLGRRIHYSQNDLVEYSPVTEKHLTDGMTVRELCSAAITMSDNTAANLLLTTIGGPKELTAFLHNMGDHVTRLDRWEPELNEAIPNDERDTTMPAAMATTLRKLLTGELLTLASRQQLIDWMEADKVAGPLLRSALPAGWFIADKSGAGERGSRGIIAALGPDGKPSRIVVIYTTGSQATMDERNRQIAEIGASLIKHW
Procedure: (§2) β-Lactamase Assays (TEM-1, P99, and OXA-10): The activity of the compounds of the invention (inhibitors) toward β-lactamases was evaluated using 96 well plates. The reaction mixture included 10 mM sodium phosphate, pH 7.0, 150 mM sodium chloride, 0.01% Triton X-100, 100 μM nitrocefin, 10 nM of β-lactamases (class A: TEM-1; class C: P99, or class D: OXA-10), and variable concentrations of the inhibitors in a total volume of 100 μL. β-Lactamases were pre-incubated with the compounds at room temperature for 5 minutes, and the assay was initiated by the addition of nitrocefin. The inhibition of the enzyme activity by the compounds was determined by monitoring color change (from yellow to red) of nitrocefin after 20 minutes. Stock solutions of the compounds were prepared in dimethyl sulfoxide (DMSO). No more than 5% DMSO was present in assays, unless noted otherwise. B1aR Assay: The surface domain of B1aR (1 μM) was added to each inhibitor (at various concentrations) in 100 mM sodium phosphate, 50 mM sodium bicarbonate, at pH 7.0. The reaction mixtures were incubated at room temperature for 20 minutes. BOCILLIN FL, a fluorogenic ligand, was added to a concentration of 20 μM in a final volume of 20 μL. The mixtures were incubated at 37° C. for 5 minutes, at which point the reactions were quenched by the addition of 15 μL of the SDS sample buffer (125 mM Tris, 4% SDS, 20% glycerol, 2% 2-mercaptoethanol, pH 6.8), and were boiled for 4 minutes. The samples were loaded onto 15% SDS-PAGE, the gel was developed and scanned using a Storm 840® Fluorimager. The fluorescent bands of BOCILLIN FL-labeled B1aR^S were analyzed by Image Quant 5.2 software. PBP2 Assay: The PBP2 assay was performed according to the methods of Villegas-Esterada et al. (J. Am. Chem. Soc. 2008, 130, 9212-9213).

[7] = target: P99 (class C β-lactamase) (Enterobacter cloacae, UniProt P05364); assay: β-Lactamase assay (nitrocefin colour change), P99; assay type: biochemical; details: for P99: Table 10, class symbols x/xx/xxx, key not given; for IC50: nitrocefin 100 μM, 10 nM enzyme, 5 min pre-incubation, read-out: IC50s P99
Chain of P99 (class C β-lactamase) (P05364 21-381): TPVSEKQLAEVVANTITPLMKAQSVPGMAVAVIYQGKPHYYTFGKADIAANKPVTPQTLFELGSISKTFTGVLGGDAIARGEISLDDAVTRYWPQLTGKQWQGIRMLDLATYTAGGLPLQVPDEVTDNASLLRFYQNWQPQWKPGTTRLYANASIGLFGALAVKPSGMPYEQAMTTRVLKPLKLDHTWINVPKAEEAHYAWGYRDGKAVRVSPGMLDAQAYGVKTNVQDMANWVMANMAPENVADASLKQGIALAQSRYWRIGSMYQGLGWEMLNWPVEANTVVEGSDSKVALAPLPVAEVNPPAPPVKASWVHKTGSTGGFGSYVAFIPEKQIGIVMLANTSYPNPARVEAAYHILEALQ
Procedure: as §2

[8] = target: OXA-10 (class D β-lactamase) (Pseudomonas aeruginosa, UniProt P14489); assay: β-Lactamase assay (nitrocefin colour change), OXA-10; assay type: biochemical; details: for OXA-10: Table 10, class symbols x/xx/xxx, key not given; for IC50: nitrocefin 100 μM, 10 nM enzyme, 5 min pre-incubation, read-out: IC50s OXA-10
Chain of OXA-10 (class D β-lactamase) (P14489 20-266, species assumed): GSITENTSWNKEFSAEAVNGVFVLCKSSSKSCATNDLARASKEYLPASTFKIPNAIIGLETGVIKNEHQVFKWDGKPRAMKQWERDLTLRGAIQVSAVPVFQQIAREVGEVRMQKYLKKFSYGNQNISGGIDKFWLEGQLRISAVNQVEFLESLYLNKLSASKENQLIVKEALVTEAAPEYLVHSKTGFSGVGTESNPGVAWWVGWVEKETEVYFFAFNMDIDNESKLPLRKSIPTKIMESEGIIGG
Procedure: as §2

surface domain of B1aR = surface domain of B1aR (Staphylococcus aureus, UniProt P18357); assay: B1aR assay (BOCILLIN FL labeling, SDS-PAGE); assay type: binding, Staphylococcus aureus (MRSA); details: Table 10; class symbols x/xx/xxx, key not given
Chain of surface domain of B1aR (P18357 331-585): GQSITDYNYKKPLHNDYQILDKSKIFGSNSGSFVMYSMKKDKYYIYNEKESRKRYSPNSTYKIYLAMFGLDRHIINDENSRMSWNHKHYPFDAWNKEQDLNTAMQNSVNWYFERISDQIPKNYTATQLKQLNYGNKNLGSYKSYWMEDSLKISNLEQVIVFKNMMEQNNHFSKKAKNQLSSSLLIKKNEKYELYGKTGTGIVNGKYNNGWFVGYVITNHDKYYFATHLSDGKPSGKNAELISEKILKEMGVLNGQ
Procedure: as §2

[9] = tested on: Klebsiella pneumonia ATCC 33495; assay: MIC, Table 12; assay type: cell-based; details: Klebsiella pneumoniae, ATCC33495, Muller-Hinton II Broth
Procedure: as §1

[10] = tested on: Proteus mirabilis ATCC 35659; assay: MIC, Table 12; assay type: cell-based; details: ATCC35659, Muller-Hinton II Broth
Procedure: as §1

[11] = tested on: Pseudomonas aeruginosa ATCC 27853; assay: MIC, Table 12; assay type: cell-based; details: ATCC27853, Muller-Hinton II Broth
Procedure: as §1

[12] = tested on: Escherichia coli ATCC 29194; assay: MIC, Table 12; assay type: cell-based; details: ATCC29194, Muller-Hinton II Broth
S. aureus NRS100 (Mec^R) = assay: MIC against S. aureus NRS100 (Table 14); assay type: cell-based, Staphylococcus aureus; details: Staphylococcus aureus, compounds dissolved in DMSO or 1% sodium carbonate, read-out: MIC
Procedure: The recited compounds were dissolved in DMSO or in 1% sodium carbonate and transferred into micro titer plate to final concentration of 1000 μg/mL.

PBP2a = PBP2a (Staphylococcus aureus, UniProt P07944); assay: PBP2 assay (Villegas-Esterada et al.); assay type: biochemical; details: Table 10
Chain of PBP2a (P07944 whole entry): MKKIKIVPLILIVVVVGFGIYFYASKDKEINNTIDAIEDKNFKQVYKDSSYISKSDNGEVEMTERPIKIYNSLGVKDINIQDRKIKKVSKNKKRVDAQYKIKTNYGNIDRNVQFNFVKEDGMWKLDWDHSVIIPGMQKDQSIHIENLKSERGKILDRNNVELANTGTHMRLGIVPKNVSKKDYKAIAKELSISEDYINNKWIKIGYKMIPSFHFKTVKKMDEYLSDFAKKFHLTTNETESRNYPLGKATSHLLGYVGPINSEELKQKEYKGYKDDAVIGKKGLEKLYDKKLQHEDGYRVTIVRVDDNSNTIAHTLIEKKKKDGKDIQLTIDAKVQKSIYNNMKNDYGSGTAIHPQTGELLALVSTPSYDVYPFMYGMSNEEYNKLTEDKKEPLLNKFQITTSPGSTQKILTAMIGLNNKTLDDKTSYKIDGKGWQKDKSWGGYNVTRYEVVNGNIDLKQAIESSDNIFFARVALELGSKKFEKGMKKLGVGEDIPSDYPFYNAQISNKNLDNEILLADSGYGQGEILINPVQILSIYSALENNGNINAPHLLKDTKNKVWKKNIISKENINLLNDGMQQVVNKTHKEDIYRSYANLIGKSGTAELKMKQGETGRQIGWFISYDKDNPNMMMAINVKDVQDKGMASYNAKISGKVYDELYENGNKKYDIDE
Procedure: as §2

[13] = tested on: methicillin-resistant strains of S. aureus; assay: MIC against methicillin-resistant S. aureus (Table 15); assay type: cell-based; details: Staphylococcus aureus, dissolved in 100% DMSO, diluted into Mueller Hinton II Broth to final 16 μg/mL
Text: Table 15 illustrates the inhibition of methicillin-resistant strains of S. aureus by selected compounds of the invention.

[14] = ATCC29212, Enterococcus faecalis ATCC 29212, Brain Heart Infusion Broth, inoculum about 1.5×10^5 CFU/mL, read-out: MIC
[15] = ATCC29213, Staphylococcus aureus ATCC 29213, Muller-Hinton II Broth, read-out: MIC
[16] = Staphylococcus aureus NRS1 (Mec^r. Vani), Muller-Hinton II Broth, read-out: MIC
[17] = Staphylococcus aureus NRS100 (COL), Muller-Hinton II Broth, read-out: MIC

Structure (SMILES)	MIC ([2]; Staphylococcus aureus) [µg/mL]	IC50 [6] [µM]	TEM-1 [6]	P99 [7]	IC50 [7] [µM]	OXA-10 [8]	IC50 [8] [µM]	BlaR (surface domain of B1aR)	MIC [1, 14] [µg/mL]	MIC [9] [µg/mL]	MIC [10] [µg/mL]	MIC [11] [µg/mL]	MIC [3, 15] [µg/mL]	MIC [4, 16] [µg/mL]	MIC [5, 17] [µg/mL]	MIC [12] [µg/mL]	MIC (S. aureus NRS100 (Mec^R)) [µg/mL]	further results
Cc1onc(-c2ccccc2)c1C(=O)N[C@@H]1C(=O)N2[C@@H]1SC(C)(C)[C@@H]2C(=O)O [Oxaxillian, reference compound]																		MIC ([1]; Enterococcus faecalis ATCC 29212, Brain Heart Infusion Broth, inoculum about 1.5×10^5 CFU/mL): 8 µg/mL (≈ 19.9 µM); MIC ([2]; Staphylococcus aureus (COLVA), Muller-Hinton II Broth): 500 µg/mL (≈ 1250 µM); MIC ([3]; Staphylococcus aureus ATCC 29213, Muller-Hinton II Broth): <0.5 µg/mL; MIC ([4]; Staphylococcus aureus NRS1 (Mec^r. Vani), Muller-Hinton II Broth): 500 µg/mL (≈ 1250 µM); MIC ([5]; Staphylococcus aureus NRS100 (COL), Muller-Hinton II Broth): 500 µg/mL (≈ 1250 µM)
CN[C@H](CC(C)C)C(=O)N[C@H]1C(=O)N[C@@H](CC(N)=O)C(=O)N[C@H]2C(=O)N[C@H]3C(=O)N[C@H](C(=O)N[C@H](C(=O)O)c4cc(O)cc(O)c4-c4cc3ccc4O)[C@H](O)c3ccc(c(Cl)c3)Oc3cc2cc(c3O[C@@H]2O[C@H](CO)[C@@H](O)[C@H](O)[C@H]2O[C@H]2C[C@](C)(N)[C@H](O)[C@H](C)O2)Oc2ccc(cc2Cl)[C@H]1O [Vancomycin, reference compound]	1000 (≈ 690 µM)																	MIC ([1]; Enterococcus faecalis, ATCC29212): 4 µg/mL (≈ 2.76 µM); MIC ([3]; Staphylococcus aureus, ATCC29213): 1 µg/mL (≈ 0.69 µM); MIC ([4]; Staphylococcus aureus, NRS1): 4 µg/mL (≈ 2.76 µM); MIC ([5]; Staphylococcus aureus, NRS100): 1 µg/mL (≈ 0.69 µM)
O=C(O)c1c(Cl)c(Cl)c(Cl)c(Cl)c1C(=O)Nc1ccc(OCc2ccccc2)c(Cl)c1 [Compound 253]	50 (≈ 96.2 µM)	32.3 ± 5.9	xxx	xxx	105 ± 8.7	xxx	222 ± 17	xx	200 (≈ 385 µM)	200 (≈ 385 µM)	400 (≈ 770 µM)	200 (≈ 385 µM)	50 (≈ 96.2 µM)	50 (≈ 96.2 µM)	50 (≈ 96.2 µM)	400 (≈ 770 µM)	> 16	
CCCCCCCCOc1ccc(NC(=O)c2c(Cl)c(Cl)c(Cl)c(Cl)c2C(=O)O)cc1 [Compound 265]	6 (≈ 11.8 µM)	3.6 ± 0.5	xxx	xxx	10.3 ± 0.3	xxx	9.9 ± 0.8		6 (≈ 11.8 µM)	200 (≈ 394 µM)	200 (≈ 394 µM)	200 (≈ 394 µM)	6 (≈ 11.8 µM)	6 (≈ 11.8 µM)	6 (≈ 11.8 µM)	200 (≈ 394 µM)		
O=C(O)c1c(Br)c(Br)c(Br)c(Br)c1C(=O)Nc1ccc(Oc2cc(C(F)(F)F)cc(C(F)(F)F)c2)cc1 [Compound 414]		4.5 ± 0.4	xxx	xxx	12 ± 0.5	xxx	19.5 ± 2	xxx									4 (≈ 5.1 µM)	PBP2a* (inhibitory concentration) (PBP2a): xxx; MIC [13]: 4 µg/mL (≈ 5.1 µM)
CCCCCCCCOc1ccc(NC(=O)c2c(Br)c(Br)c(Br)c(Br)c2C(=O)O)cc1 [Compound 274]	3 (≈ 4.38 µM)	2.4 ± 0.1	xxx	xxx	3.1 ± 0.5	xxx	5.5 ± 0.5		100 (≈ 146 µM)	200 (≈ 292 µM)	400 (≈ 584 µM)	200 (≈ 292 µM)	3 (≈ 4.38 µM)	3 (≈ 4.38 µM)	3 (≈ 4.38 µM)	400 (≈ 584 µM)		
O=C(O)c1c(Cl)c(Cl)c(Cl)c(Cl)c1C(=O)Nc1ccc(OCc2cccc(OC(F)(F)F)c2)c(Cl)c1 [Compound 419]		2.3 ± 0.1	xxx	xx	13 ± 2	xxx	10.8 ± 0.7	xxx									8 (≈ 13.3 µM)	PBP2a* (inhibitory concentration) (PBP2a): xxx; MIC [13]: 8 µg/mL (≈ 13.3 µM)
O=C(O)c1c(Br)c(Br)c(Br)c(Br)c1C(=O)Nc1ccc(OCc2ccccc2)c(Cl)c1 [Compound 239]	25 (≈ 35.8 µM)								200 (≈ 287 µM)	200 (≈ 287 µM)	400 (≈ 574 µM)	200 (≈ 287 µM)	25 (≈ 35.8 µM)	50 (≈ 71.7 µM)	100 (≈ 143 µM)	400 (≈ 574 µM)		
